Results: PubChem BioAssay AID1963980 (Molecular Pharmacology Branch, DTP, NCI, 2024)

Tested on: 475296-252-R-J1-PDC spheroid viability
Assay: Anticancer human tumor 475296-252-R-J1-PDC patient-derived rectal carcinoma cell line growth inhibition [PI3K]
Details: spheroids with HUVEC and MSC; for IC50: curve of first compound; for viability, T/C: stronger effect = lower value; active = viability on the fitted dose curve at most 10% of control; inactive = the rest
How it was run: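 Tumor cells grown as multi-cell spheroids with HUVEC endothelial cells and MSC fibroblast-like stroma were treated with targeted agents combined with inavolisib, alpelisib, duvelisib or copanlisib. Doses fell in half-log steps from near clinical Cmax, else from 10 microM. Viability was measured.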

[1] = second compound 0.00316 µM, first compound 0.0316 µM
[2] = second compound 0.00316 µM, first compound 0.1 µM
[3] = second compound 0.00316 µM, first compound 0.316 µM
[4] = second compound 0.00316 µM, first compound 1 µM
[5] = second compound 0.01 µM, first compound 0.0316 µM
[6] = second compound 0.01 µM, first compound 0.1 µM
[7] = second compound 0.01 µM, first compound 0.316 µM
[8] = second compound 0.01 µM, first compound 1 µM
[9] = second compound 0.0316 µM, first compound 0.0316 µM
[10] = second compound 0.0316 µM, first compound 0.1 µM
[11] = second compound 0.0316 µM, first compound 0.316 µM
[12] = second compound 0.0316 µM, first compound 1 µM
[13] = second compound 0.1 µM, first compound 0.0316 µM
[14] = second compound 0.1 µM, first compound 0.1 µM
[15] = second compound 0.1 µM, first compound 0.316 µM
[16] = second compound 0.1 µM, first compound 1 µM
[17] = second compound 0.316 µM, first compound 0.0316 µM
[18] = second compound 0.316 µM, first compound 0.1 µM
[19] = second compound 0.316 µM, first compound 0.316 µM
[20] = second compound 0.316 µM, first compound 1 µM
[21] = second compound 1 µM, first compound 0.0316 µM
[22] = second compound 1 µM, first compound 0.1 µM
[23] = second compound 1 µM, first compound 0.316 µM
[24] = second compound 1 µM, first compound 1 µM
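Note: spheroids exposed to agents for seven days before readout.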

CCN1CCN(Cc2ccc(Nc3ncc(F)c(-c4cc(F)c5nc(C)n(C(C)C)c5c4)n3)nc2)CC1 + CC(Nc1ccc2c(c1)OCCn1cc(N3C(=O)OCC3C(F)F)nc1-2)C(N)=O
> 1 µM: IC50 (second compound 0.00316 µM) | IC50 (second compound 0.01 µM) | IC50 (second compound 0.0316 µM) | IC50 (second compound 0.1 µM) | IC50 (second compound 0.316 µM) | IC50 (second compound 1 µM)
inactive: viability, T/C (second compound 0.00316 µM, first compound 0.00316 µM) 97.2% | viability, T/C (second compound 0.00316 µM, first compound 0.01 µM) 82.2% | viability, T/C [1] 94% | viability, T/C [2] 86.2% | viability, T/C [3] 101% | viability, T/C [4] 89.3% | viability, T/C (second compound 0.01 µM, first compound 0.00316 µM) 94.1% | viability, T/C (second compound 0.01 µM, first compound 0.01 µM) 87.8% | viability, T/C [5] 95.6% | viability, T/C [6] 85.1% | viability, T/C [7] 89.5% | viability, T/C [8] 87.9% | viability, T/C (second compound 0.0316 µM, first compound 0.00316 µM) 95.3% | viability, T/C (second compound 0.0316 µM, first compound 0.01 µM) 92.3% | viability, T/C [9] 86.7% | viability, T/C [10] 99.3% | viability, T/C [11] 87.6% | viability, T/C [12] 81.8% | viability, T/C (second compound 0.1 µM, first compound 0.00316 µM) 81.3% | viability, T/C (second compound 0.1 µM, first compound 0.01 µM) 111% | viability, T/C [13] 86.6% | viability, T/C [14] 86% | viability, T/C [15] 94.3% | viability, T/C [16] 71.8% | viability, T/C (second compound 0.316 µM, first compound 0.00316 µM) 85% | viability, T/C (second compound 0.316 µM, first compound 0.01 µM) 96.1% | viability, T/C [17] 90.6% | viability, T/C [18] 86.9% | viability, T/C [19] 85% | viability, T/C [20] 71.2% | viability, T/C (second compound 1 µM, first compound 0.00316 µM) 83.3% | viability, T/C (second compound 1 µM, first compound 0.01 µM) 75.5% | viability, T/C [21] 80.5% | viability, T/C [22] 76.9% | viability, T/C [23] 79.1% | viability, T/C [24] 64.2%

CC(C)NCC(C(=O)N1CCN(c2ncnc3c2C(C)CC3O)CC1)c1ccc(Cl)cc1 (centres undefined) + CC(Nc1ccc2c(c1)OCCn1cc(N3C(=O)OCC3C(F)F)nc1-2)C(N)=O
> 10 µM: IC50 (second compound 0.00316 µM) | IC50 (second compound 0.01 µM) | IC50 (second compound 0.0316 µM) | IC50 (second compound 0.1 µM) | IC50 (second compound 0.316 µM) | IC50 (second compound 1 µM)
inactive: viability, T/C [1] 85.7% | viability, T/C [2] 86.5% | viability, T/C [3] 95.3% | viability, T/C [4] 75.7% | viability, T/C (second compound 0.00316 µM, first compound 3.16 µM) 67.6% | viability, T/C (second compound 0.00316 µM, first compound 10 µM) 59.3% | viability, T/C [5] 82.7% | viability, T/C [6] 78.5% | viability, T/C [7] 88.3% | viability, T/C [8] 67.6% | viability, T/C (second compound 0.01 µM, first compound 3.16 µM) 65.3% | viability, T/C (second compound 0.01 µM, first compound 10 µM) 67.5% | viability, T/C [9] 92.7% | viability, T/C [10] 94.3% | viability, T/C [11] 91.4% | viability, T/C [12] 95.4% | viability, T/C (second compound 0.0316 µM, first compound 3.16 µM) 63.5% | viability, T/C (second compound 0.0316 µM, first compound 10 µM) 62.4% | viability, T/C [13] 84.2% | viability, T/C [14] 86.4% | viability, T/C [15] 90.5% | viability, T/C [16] 92.5% | viability, T/C (second compound 0.1 µM, first compound 3.16 µM) 78.4% | viability, T/C (second compound 0.1 µM, first compound 10 µM) 57.8% | viability, T/C [17] 84.9% | viability, T/C [18] 80% | viability, T/C [19] 84.9% | viability, T/C [20] 82.6% | viability, T/C (second compound 0.316 µM, first compound 3.16 µM) 87.4% | viability, T/C (second compound 0.316 µM, first compound 10 µM) 66.2% | viability, T/C [21] 93.5% | viability, T/C [22] 86.2% | viability, T/C [23] 83.4% | viability, T/C [24] 77.8% | viability, T/C (second compound 1 µM, first compound 3.16 µM) 77% | viability, T/C (second compound 1 µM, first compound 10 µM) 67.8%
